Data on 26 compounds can be found in the supplement of paper PMC11061612.

The structures appear in SMILES notation.

Experiment [1] concerns BT-549 (Breast Carcinoma). The experiment in a line: combination Emax (second highest fraction inhibited in the dose matrix, 72 h); higher = more inhibition; extreme values may be limits of the assay. The essentials:
(§1)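 Cell lines in DMEM/F12 or RPMI with 10% FBS were plated in 1536-well plates, held 24 hours at 37°C, 5% CO2, then given two-drug dose matrices for 72 hours (DMSO typically 0.2%). Viability was read by CellTiter-Glo 2.0 luminescence and scaled as inhibition from 0 (vehicle wells) to 1 (blank wells). Combination Emax is the second-highest inhibition in the matrix; Bliss excess is observed combination effect minus expected EA + EB − EA·EB, EA and EB being single-agent effects.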

Experiment [2] concerns HSC-4 (Oral Cavity Carcinoma). The description is as above. The essentials:
as §1

Regarding `C=CCn1c(=O)c2cnc(Nc3ccc(N4CCN(C)CC4)cc3)nc2n1-c1cccc(C(C)(C)O)n1` [AZD1775] + CCc1c2c(nc3ccc(O)cc13)-c1cc3c(c(=O)n1C2)COC(=O)[C@]3(O)CC [SN-38] (first compound max 1 µM, partner max 0.3 µM), in experiment [1], the “combination Emax” value amounted to 0.857. Consider `C=CCn1c(=O)c2cnc(Nc3ccc(N4CCN(C)CC4)cc3)nc2n1-c1cccc(C(C)(C)O)n1` [AZD1775] + Nc1ccn([C@@H]2O[C@H](CO)[C@@H](O)C2(F)F)c(=O)n1 [Gemcitabine] (first compound max 1 µM, partner max 0.3 µM), for which the “combination Emax” value in experiment [1] came out at 0.827. On to `CN(CCO)CC[C@H](CSc1ccccc1)Nc1ccc(S(=O)(=O)NC(=O)c2ccc(N3CCC([C@@H](O)c4ccccc4-c4ccc(Cl)cc4)CC3)cc2)cc1S(=O)(=O)C(F)(F)F` [AZD4320] + CS(=O)(=O)CCNCc1ccc(-c2ccc3ncnc(Nc4ccc(OCc5cccc(F)c5)c(Cl)c4)c3c2)o1 [Lapatinib] (first compound max 1 µM, 7x7, partner max 10 µM), for which the “combination Emax” value in experiment [1] amounted to 0.633. For `COc1nnc2ccc(N3CCC(c4ccc(OCCN5CCN(C)C(=O)[C@H]5C)cc4)CC3)nn12` [AZD5153] + C=CCn1c(=O)c2cnc(Nc3ccc(N4CCN(C)CC4)cc3)nc2n1-c1cccc(C(C)(C)O)n1 [AZD1775] (first compound max 1 µM, partner max 1 µM), the entries for the “combination Emax” value in experiment [1] and in experiment [2] were 0.732 and 0.397, respectively. On the same counts, the results for `COc1nnc2ccc(N3CCC(c4ccc(OCCN5CCN(C)C(=O)[C@H]5C)cc4)CC3)nn12` [AZD5153] + CC1(C)CCC(CN2CCN(c3ccc(C(=O)NS(=O)(=O)c4ccc(NCC5CCOCC5)c([N+](=O)[O-])c4)c(Oc4cnc5[nH]ccc5c4)c3)CC2)=C(c2ccc(Cl)cc2)C1 [Venetoclax] (first compound max 1 µM, 7x7, partner max 1 µM) are 0.518 and 0.0567. On the same counts, the results for `COc1nnc2ccc(N3CCC(c4ccc(OCCN5CCN(C)C(=O)[C@H]5C)cc4)CC3)nn12` [AZD5153] + CCN(CCO)CCCOc1ccc2c(Nc3cc(CC(=O)Nc4cccc(F)c4)[nH]n3)ncnc2c1 [AZD2811] (first compound max 1 µM, 7x7, partner max 1 µM) are 0.593 and 0.292. Regarding `COc1nnc2ccc(N3CCC(c4ccc(OCCN5CCN(C)C(=O)[C@H]5C)cc4)CC3)nn12` [AZD5153] + C[C@@H]1COCCN1C2=NC(=NC(=C2)C3(CC3)[S@](=N)(=O)C)C4=C5C=CNC5=NC=C4 [AZD6738] (first compound max 1 µM, 7x7, partner max 10 µM), the “combination Emax” value came to 0.637 in experiment [1] and 0.528 in experiment [2]. `COc1nnc2ccc(N3CCC(c4ccc(OCCN5CCN(C)C(=O)[C@H]5C)cc4)CC3)nn12` [AZD5153] + Cc1c2c(nn1C)CSCc1cc(n(C)n1)CSc1cc(c3ccccc3c1)OCCCc1c(C(=O)O)n(C)c3c-2c(Cl)ccc13 [AZD5991] (first compound max 1 µM, 7x7, partner max 1 µM): the entries for the “combination Emax” value in experiment [1] and in experiment [2] were 0.814 and 0.199, respectively.

In the case of `COc1nnc2ccc(N3CCC(c4ccc(OCCN5CCN(C)C(=O)[C@H]5C)cc4)CC3)nn12` [AZD5153] + Cn1cnc2c(F)c(Nc3ccc(Br)cc3Cl)c(C(=O)NOCCO)cc21 [Selumetinib] (first compound max 1 µM, 7x7, partner max 10 µM), the “combination Emax” value in experiment [1] amounted to 0.518; in experiment [2], 0.423.

As for `Cc1c2c(nn1C)CSCc1cc(n(C)n1)CSc1cc(c3ccccc3c1)OCCCc1c(C(=O)O)n(C)c3c-2c(Cl)ccc13` [AZD5991] + CC(=O)O[C@H]1C(=O)[C@@]2(C)[C@H]([C@H](OC(=O)c3ccccc3)[C@]3(O)C[C@H](OC(=O)[C@H](O)[C@@H](NC(=O)c4ccccc4)c4ccccc4)C(C)=C1C3(C)C)[C@]1(OC(C)=O)CO[C@@H]1C[C@@H]2O [Paclitaxel] (first compound max 1 µM, 7x7, partner max 3 µM), in experiment [1], the “combination Emax” value was 0.864. Turning to `Cc1c2c(nn1C)CSCc1cc(n(C)n1)CSc1cc(c3ccccc3c1)OCCCc1c(C(=O)O)n(C)c3c-2c(Cl)ccc13` [AZD5991] + CS(=O)(=O)CCNCc1ccc(-c2ccc3ncnc(Nc4ccc(OCc5cccc(F)c5)c(Cl)c4)c3c2)o1 [Lapatinib] (first compound max 1 µM, 7x7, partner max 10 µM), the “combination Emax” value in experiment [1] amounted to 0.412. Consider `Cc1c2c(nn1C)CSCc1cc(n(C)n1)CSc1cc(c3ccccc3c1)OCCCc1c(C(=O)O)n(C)c3c-2c(Cl)ccc13` [AZD5991] + Nc1ccn([C@@H]2O[C@H](CO)[C@@H](O)C2(F)F)c(=O)n1 [Gemcitabine] (first compound max 1 µM, 7x7, partner max 0.3 µM), for which the “combination Emax” value in experiment [1] was 0.395. On to `C[C@@H]1COCCN1c1cc(C2([S@](C)(=N)=O)CC2)nc(-c2ccnc3[nH]ccc23)n1` [AZD6738] + C1CC(C1)(C(=O)[O-])C(=O)[O-].N.N.[Pt+2] [Carboplatin] (first compound max 10 µM, 7x7, partner max 10 µM), for which, in experiment [1], the “combination Emax” value is 0.51. Take `C[C@@H]1COCCN1c1cc(C2([S@](C)(=N)=O)CC2)nc(-c2ccnc3[nH]ccc23)n1` [AZD6738] + Nc1ccn([C@@H]2O[C@H](CO)[C@@H](O)C2(F)F)c(=O)n1 [Gemcitabine] (first compound max 10 µM, 7x7, partner max 0.3 µM): the “combination Emax” value in experiment [1] was determined as 0.797.

Take `C[C@@H](Nc1cc(F)cc(F)c1)c1cc(C(=O)N(C)C)cc2c(=O)cc(N3CCOCC3)oc12` [AZD8186] + C1CN(CCC1(C(=O)N[C@@H](CCO)C2=CC=C(C=C2)Cl)N)C3=NC=NC4=C3C=CN4 [AZD5363] (first compound max 10 µM, 7x7, partner max 10 µM): the “combination Emax” value in experiment [1] is 0.343.

In the case of `C[C@@H](Nc1cc(F)cc(F)c1)c1cc(C(=O)N(C)C)cc2c(=O)cc(N3CCOCC3)oc12` [AZD8186] + CC(=O)c1c(C)c2cnc(Nc3ccc(N4CCNCC4)cn3)nc2n(C2CCCC2)c1=O [Palbociclib] (first compound max 10 µM, 7x7, partner max 10 µM), the “combination Emax” value in experiment [1] is 0.392.

Consider `NC1(C(=O)N[C@@H](CCO)c2ccc(Cl)cc2)CCN(c2ncnc3[nH]ccc23)CC1` [Capivasertib] + CC(=O)c1c(C)c2cnc(Nc3ccc(N4CCNCC4)cn3)nc2n(C2CCCC2)c1=O [Palbociclib] (first compound max 10 µM, 7x7, partner max 10 µM), for which the “combination Emax” value was 0.391 in experiment [1] and 0.423 in experiment [2].

For `C[C@@H](Oc1cc(-c2cnn(C3CCNCC3)c2)cnc1N)c1c(Cl)ccc(F)c1Cl` [Crizotinib] + CC1=C(C(=CC=C1)Cl)NC(=O)C2=CN=C(S2)NC3=CC(=NC(=N3)C)N4CCN(CC4)CCO [Dasatinib] (first compound max 10 µM, 7x7, partner max 2 µM), in experiment [1], the “combination Emax” value stood at 0.679. On to `C[C@@H](Oc1cc(-c2cnn(C3CCNCC3)c2)cnc1N)c1c(Cl)ccc(F)c1Cl` [Crizotinib] + Cn1cnc2c(F)c(Nc3ccc(Br)cc3Cl)c(C(=O)NOCCO)cc21 [Selumetinib] (first compound max 10 µM, 7x7, partner max 10 µM), for which the “combination Emax” value in experiment [1] was 0.38.

As to `CS(=O)(=O)CCNCc1ccc(-c2ccc3ncnc(Nc4ccc(OCc5cccc(F)c5)c(Cl)c4)c3c2)o1` [Lapatinib] + Cn1cnc2c(F)c(Nc3ccc(Br)cc3Cl)c(C(=O)NOCCO)cc21 [Selumetinib] (first compound max 10 µM, 7x7, partner max 10 µM), the “combination Emax” value in experiment [1] came to 0.32. The same measure, in the same setting: in the case of `O=C(c1cc(Cc2n[nH]c(=O)c3ccccc23)ccc1F)N1CCN(C(=O)C2CC2)CC1` [Olaparib] + CC1(C)CCC(CN2CCN(c3ccc(C(=O)NS(=O)(=O)c4ccc(NCC5CCOCC5)c([N+](=O)[O-])c4)c(Oc4cnc5[nH]ccc5c4)c3)CC2)=C(c2ccc(Cl)cc2)C1 [Venetoclax] (first compound max 10 µM, 7x7, partner max 1 µM) it was 0.18; in that of `O=C(c1cc(Cc2n[nH]c(=O)c3ccccc23)ccc1F)N1CCN(C(=O)C2CC2)CC1` [Olaparib] + CN(CC[C@H](CSC1=CC=CC=C1)NC2=C(C=C(C=C2)S(=O)(=O)NC(=O)C3=CC=C(C=C3)N4CCC(CC4)[C@H](C5=CC=CC=C5C6=CC=C(C=C6)Cl)O)S(=O)(=O)C(F)(F)F)CCO [AZD4320] (first compound max 10 µM, 7x7, partner max 1 µM), 0.217. In the case of `O=C(c1cc(Cc2n[nH]c(=O)c3ccccc23)ccc1F)N1CCN(C(=O)C2CC2)CC1` [Olaparib] + COc1nnc2ccc(N3CCC(c4ccc(OCCN5CCN(C)C(=O)[C@H]5C)cc4)CC3)nn12 [AZD5153] (first compound max 10 µM, 7x7, partner max 1 µM), the “combination Emax” value in experiment [1] was determined as 0.462.

For the compound `O=C(c1cc(Cc2n[nH]c(=O)c3ccccc23)ccc1F)N1CCN(C(=O)C2CC2)CC1` [Olaparib] + Cc1c2c(nn1C)CSCc1cc(n(C)n1)CSc1cc(c3ccccc3c1)OCCCc1c(C(=O)O)n(C)c3c-2c(Cl)ccc13 [AZD5991] (first compound max 10 µM, 7x7, partner max 1 µM), the “combination Emax” value in experiment [1] is 0.217. Turning to `Cc1nc(-c2cn3c(n2)-c2ccc(-c4cnn(C(C)(C)C(N)=O)c4)cc2OCC3)n(C(C)C)n1` [Taselisib] + O=C(Nc1ccc2[nH]nc(-c3ccncc3)c2c1)[C@@H]1CCN(CC(=O)N2CCN(c3ccc(-c4ncccn4)cc3)CC2)C1 [SCH772984] (first compound max 10 µM, 7x7, partner max 5 µM), the “combination Emax” value in experiment [1] was determined as 0.501. In the case of `CC1(C)CCC(CN2CCN(c3ccc(C(=O)NS(=O)(=O)c4ccc(NCC5CCOCC5)c([N+](=O)[O-])c4)c(Oc4cnc5[nH]ccc5c4)c3)CC2)=C(c2ccc(Cl)cc2)C1` [Venetoclax] + CS(=O)(=O)CCNCc1ccc(-c2ccc3ncnc(Nc4ccc(OCc5cccc(F)c5)c(Cl)c4)c3c2)o1 [Lapatinib] (first compound max 1 µM, 7x7, partner max 10 µM), the “combination Emax” value in experiment [1] was 0.249.
